In patent US10308637B2 (LifeSci Pharmaceuticals, Inc., priority 2015, dated 2019):

Test: Contact Assay (percentage inhibition from fluorescence intensity)
Format: biochemical
Procedure: The percentage inhibition was calculated using the following equation:
[formula] where, Mean(BG) is the average value of the fluorescence intensity of the background wells and Mean(PC) is the average value of the fluorescence intensity of the positive control wells.
Table 4 provides the EC50 values of various compounds disclosed herein.

Row | SMILES | EC50 [nM]
1 | Cc1cc(N)nc(C)c1CNC(=O)c1ccnc(Cc2ccc3ncc(Cl)cc3c2F)c1 [Example 102, N-((6-amino-2,4-dimethylpyridin-3-yl)methyl)-2-((3-chloro-5-fluoroquinolin-6-yl)methyl)isonicotinamide] | 100 to 1000
2 | Cc1cc(N)nc(C)c1CNC(=O)c1ccnc(Cc2ccc3ncc(C4CC4)cc3c2)c1 [Example 243, N-((6-amino-2,4-dimethylpyridin-3-yl)methyl)-2-((3-cyclopropylquinolin-6-yl)methyl)isonicotinamide] | ≤ 100
3 | Cc1nc(N)ccc1CNC(=O)c1ccnc(Cc2cc(C(N)=O)c3ncc(Cl)cc3c2)c1 [Example 62, 6-((4-(((6-amino-2-methylpyridin-3-yl)methyl)carbamoyl)pyridin-2-yl)methyl)-3-chloroquinoline-8-carboxamide] | ≤ 100
4 | Cc1cc(N)nc(C)c1CNC(=O)c1cc(CC(N)=O)nc(Cc2ccc3ncc(Cl)cc3c2)c1 [Example 214, N-((6-amino-2,4-dimethylpyridin-3-yl)methyl)-2-(2-amino-2-oxoethyl)-6-((3-chloroquinolin-6-yl)methyl)isonicotinamide] | ≤ 100
5 | Cc1cc(N)nc(C)c1CNC(=O)c1ccnc(Cc2cc(S(N)(=O)=O)c3ncc(Cl)cc3c2)c1 [Example 235, N-((6-amino-2,4-dimethylpyridin-3-yl)methyl)-2-((3-chloro-8-sulfamoylquinolin-6-yl)methyl)isonicotinamide] | ≤ 100
6 | O=C(NCc1ccc2[nH]cc(Cl)c2c1F)c1ccnc(Cc2ccc3ncc(Cl)cc3c2)c1 [Example 40, N-(3-Chloro-4-fluoro-1H-indol-5-ylmethyl)-2-(3-chloro-quinolin-6-ylmethyl)-isonicotinamide] | 100 to 1000
7 | Cc1cc(N)nc(C)c1CNC(=O)c1ccnc(C(C)(O)c2ccc3ncc(Cl)cc3c2)c1 (centres unmarked) [Example 277, N-((6-amino-2,4-dimethylpyridin-3-yl)methyl)-2-(1-(3-chloroquinolin-6-yl)-1-hydroxyethyl)isonicotinamide] | 100 to 1000
8 | Cc1cnc2c(C(N)=O)cc(Cc3cc(C(=O)NCc4cnc5[nH]cc(Cl)c5c4)ccn3)cc2c1 [Example 80, 6-((4-(((3-chloro-1H-pyrrolo[2,3-b]pyridin-5-yl)methyl)carbamoyl)pyridin-2-yl)methyl)-3-methylquinoline-8-carboxamide] | ≤ 100
9 | Cc1nc(N)ccc1CNC(=O)c1ccnc(Cc2cc(CN)c3ncc(Cl)cc3c2)c1 [Example 253, N-((6-amino-2-methylpyridin-3-yl)methyl)-2-((8-(aminomethyl)-3-chloroquinolin-6-yl)methyl)isonicotinamide] | ≤ 100
10 | Cc1nc(N)ccc1CNC(=O)c1ccnc(Cc2cc(CO)c3ncc(Cl)cc3c2)c1 [Example 97, N-((6-amino-2-methylpyridin-3-yl)methyl)-2-((3-chloro-8-(hydroxymethyl)quinolin-6-yl)methyl)isonicotinamide] | ≤ 100
11 | Nc1nccc2cc(CNC(=O)c3ccnc(Cc4ccc5ncc(C6CC6)cc5c4)c3)ccc12 [Example 247, N-((1-aminoisoquinolin-6-yl)methyl)-2-((3-cyclopropylquinolin-6-yl)methyl)isonicotinamide] | ≤ 100
12 | Cc1cc(N)nc(C)c1CNC(=O)c1ccnc(Cc2cc(N)c3ncc(Cl)cc3c2)c1 [Example 217, N-((6-amino-2,4-dimethylpyridin-3-yl)methyl)-2-((8-amino-3-chloroquinolin-6-yl)methyl)isonicotinamide] | ≤ 100
13 | O=C(NCc1cnc2[nH]cc(Cl)c2c1)c1ccnc(Cc2ccc3ncc(Cl)cc3c2)c1 [Example 38, N-(3-Chloro-1H-pyrrolo[2,3-b]pyridin-5-ylmethyl)-2-(3-chloro-quinolin-6-ylmethyl)-isonicotinamide] | 100 to 1000
14 | Cc1cc(N)nc(C)c1CNC(=O)c1ccnc(Cc2cc(CN)c3ncc(Cl)cc3c2)c1 [Example 241, N-((6-amino-2,4-dimethylpyridin-3-yl)methyl)-2-((8-(aminomethyl)-3-chloroquinolin-6-yl)methyl)isonicotinamide] | ≤ 100
15 | Cc1nc2c(c(C)c1CNC(=O)c1ccnc(Cc3ccc4ncc(C(F)(F)F)cc4c3)c1)CCN2 [Example 176, N-((4,6-dimethyl-2,3-dihydro-1H-pyrrolo[2,3-b]pyridin-5-yl)methyl)-2-((3-(trifluoromethyl)quinolin-6-yl)methyl)isonicotinamide] | 100 to 1000
16 | Cc1cnc2c(C(=O)O)cc(Cc3cc(C(=O)NCc4c(C)cc(N)nc4C)ccn3)cc2c1 [Example 84, 6-((4-(((6-amino-2,4-dimethylpyridin-3-yl)methyl)carbamoyl)pyridin-2-yl)methyl)-3-methylquinoline-8-carboxylic acid] | ≤ 100
17 | Cc1c(CNC(=O)c2ccnc(Cc3ccc4ncc(Cl)cc4c3)c2)ccc2c(N)nccc12 [Example 177, N-((1-amino-5-methylisoquinolin-6-yl)methyl)-2-((3-chloroquinolin-6-yl)methyl)isonicotinamide] | ≤ 100
18 | COC(=O)c1cc(Cc2cc(C(=O)NCc3c(C)cc(N)nc3C)ccn2)cc2cc(Cl)cnc12 [Example 92, methyl 6-((4-(((6-amino-2,4-dimethylpyridin-3-yl)methyl)carbamoyl)pyridin-2-yl)methyl)-3-chloroquinoline-8-carboxylate] | ≤ 100

Row | SMILES | EC50 [nM]
19 | NC(=O)c1cc(Cc2cc(C(=O)NCc3ccc4[nH]cc(Cl)c4c3F)ccn2)cc2cc(Cl)cnc12 [Example 65, 3-chloro-6-((4-(((3-chloro-4-fluoro-1H-indol-5-yl)methyl)carbamoyl)pyridin-2-yl)methyl)quinoline-8-carboxamide] | ≤ 100
20 | Cc1cc(C(=O)NCc2c(C)cc(N)nc2C)cc(Cc2ccc3ncc(Cl)cc3c2)n1 [Example 104, N-((6-amino-2,4-dimethylpyridin-3-yl)methyl)-2-((3-chloroquinolin-6-yl)methyl)-6-methylisonicotinamide] | ≤ 100
21 | NC(=O)c1cc(Cc2cc(C(=O)NCc3ccc4c(N)nccc4c3)ccn2)cc2cc(Cl)cnc12 [Example 64, 6-((4-(((1-aminoisoquinolin-6-yl)methyl)carbamoyl)pyridin-2-yl)methyl)-3-chloroquinoline-8-carboxamide] | ≤ 100
22 | CC(C)(O)c1cc(Cc2cc(C(=O)NCc3cc4c(Cl)c[nH]c4cc3F)ccn2)cc2cc(Cl)cnc12 [Example 221, N-((3-chloro-6-fluoro-1H-indol-5-yl)methyl)-2-((3-chloro-8-(2-hydroxypropan-2-yl)quinolin-6-yl)methyl)isonicotinamide] | 100 to 1000
23 | Cc1cnc2c(C(N)=O)cc(Cc3cc(C(=O)NCc4cc5cc[nH]c5cc4F)ccn3)cc2c1 [Example 83, 6-((4-(((6-fluoro-1H-indol-5-yl)methyl)carbamoyl)pyridin-2-yl)methyl)-3-methylquinoline-8-carboxamide] | 100 to 1000
24 | Cc1ccn2cnc(CNC(=O)c3ccnc(Cc4ccc5ncc(Cl)cc5c4)c3)c2c1 [Example 156, 2-((3-chloroquinolin-6-yl)methyl)-N-((7-methylimidazo [1,5-a]pyridin-1-yl)methyl)isonicotinamide] | 100 to 1000
25 | Cc1nc2ccc(Cc3cc(C(=O)NCc4ccc(N)nc4C)ccn3)cc2cc1Cl [Example 239, N-((6-amino-2-methylpyridin-3-yl)methyl)-2-((3-chloro-2-methylquinolin-6-yl)methyl)isonicotinamide] | 100 to 1000
26 | Cc1ccc2ncc(Cc3cc(C(=O)NCc4ccc5c(N)nccc5c4)ccn3)cc2c1 [Example 115, N-((1-aminoisoquinolin-6-yl)methyl)-2-((6-methylquinolin-3-yl)methyl)isonicotinamide] | ≤ 100
27 | CC(C)(O)c1cc(Cc2cc(C(=O)NCc3ccc4[nH]cc(Cl)c4c3F)ccn2)cc2cc(Cl)cnc12 [Example 222, N-((3-chloro-4-fluoro-1H-indol-5-yl)methyl)-2-((3-chloro-8-(2-hydroxypropan-2-yl)quinolin-6-yl)methyl)isonicotinamide] | 100 to 1000
28 | Cc1cc(N)nc(C)c1CNC(=O)c1ccnc(Cc2cc(S(C)(=O)=O)c3ncc(Cl)cc3c2)c1 [Example 67, N-((6-amino-2,4-dimethylpyridin-3-yl)methyl)-2-((3-chloro-8-(methylsulfonyl)quinolin-6-yl)methyl)isonicotinamide] | ≤ 100
29 | Cc1cnc2c(S(C)(=O)=O)cc(Cc3cc(C(=O)NCc4c(C)cc(N)nc4C)ccn3)cc2c1 [Example 15, N-((6-amino-2,4-dimethylpyridin-3-yl)methyl)-2-((3-methyl-8-(methylsulfonyl)quinolin-6-yl)methyl)isonicotinamide] | ≤ 100
30 | CCCc1cnc2ccc(Cc3cc(C(=O)NCc4c(C)cc(N)nc4C)ccn3)cc2c1 [Example 255, N-((6-amino-2,4-dimethylpyridin-3-yl)methyl)-2-((3-propylquinolin-6-yl)methyl)isonicotinamide] | ≤ 100
31 | Cc1nc(N)ccc1CNC(=O)c1ccnc(Cc2cc(Cl)c3ncc(Cl)cc3c2)c1 [Example 101, N-((6-amino-2-methylpyridin-3-yl)methyl)-2-((3,8-dichloroquinolin-6-yl)methyl)isonicotinamide] | ≤ 100
32 | Nc1nccc2cc(CNC(=O)c3ccnc(Cc4ccc5ncc(C(F)(F)F)cc5c4)c3)ccc12 [Example 232, N-((1-aminoisoquinolin-6-yl)methyl)-2-((3-(trifluoromethyl)quinolin-6-yl)methyl)isonicotinamide] | ≤ 100
33 | O=C(NCc1ccc2[nH]cc(Cl)c2c1F)c1ccnc(Cc2ccc3ncc(C(F)(F)F)cc3c2)c1 [Example 234, N-((3-chloro-4-fluoro-1H-indol-5-yl)methyl)-2-((3-(trifluoromethyl)quinolin-6-yl)methyl)isonicotinamide] | 100 to 1000
34 | O=C(NCc1n[nH]c2ccc(Cl)cc12)c1ccnc(Cc2ccc3ncc(C4CC4)cc3c2)c1 [Example 249, N-((5-chloro-1H-indazol-3-yl)methyl)-2-((3-cyclopropylquinolin-6-yl)methyl)isonicotinamide] | 100 to 1000
35 | Cc1cnc2c(C#N)cc(Cc3cc(C(=O)NCc4c(C)cc(N)nc4C)ccn3)cc2c1 [Example 70, N-((6-amino-2,4-dimethylpyridin-3-yl)methyl)-2-((8-cyano-3-methylquinolin-6-yl)methyl)isonicotinamide] | ≤ 100
